{"source": "patent EP4635488A1", "about": "“PHARMACEUTICAL COMPOSITION FOR PREVENTING OR TREATING BONE DISEASES” (Industry Foundation of Chonnam National University, priority 2022, dated 2024)", "data": [{"tested_on": "RANKL-induced BMM", "assay": "In vitro osteoclast formation assay (TRAP staining / TRAP activity)", "type": "cell-based, C57/BL6 mice", "design": "key to Inhibition rate (%): \"Inactive\" indicates that the % inhibition is less than 30%", "settings": "1 µM; osteoclast differentiation in RANKL-induced BMM; mean ± SD from at least three experiments", "description": "(§1) Bone marrow cells (BMC) were obtained from 8-week-old female C57/BL6 mice by washing femurs and tibias with α-MEM. BMCs were then cultured overnight in full α-MEM containing 10% FBS, 100 U/mL penicillin, and 100 µg/mL streptomycin. Non-attached cells were collected and cultured with M-CSF (30 ng/ mL) for 3 days, and then the attached cells were used as BMM. All animal experiments were approved by Chonnam National University IACUC (approval number: CNU IACUC-YB-2019-49).\n(§2) To generate osteoclasts, BMMs were harvested and cultured in a complete medium containing 30 ng/mL M-CSF and 50 ng/mL RANKL with or without compounds for approximately 4 days to obtain mature osteoclasts. Differentiated osteoclasts were fixed with 4% formalin for 15 minutes, and then the cells were stained using a TRAP staining kit. The spread of osteoclast areas could be observed under the microscope. The viability of BMM (1 × 10^4 cells/well) was assessed in a 96-well plate using a cell viability assay kit as previously described.", "units": {"Inhibition rate (%)": "%"}, "values": [{"smiles": "COc1ccccc1OC(=O)c1cccc(NCC(=O)Nc2ccccc2Sc2ccccc2)c1", "note": "[Compound 25-KR-20, 2-Methoxyphenyl 3-((2-oxo-2-((2-(phenylthio)phenyl)amino)ethyl)amino) benzoate]", "Inhibition rate (%)": "52.27±1.11"}, {"smiles": "COc1ccc(OC(=O)c2cccc(NCC(=O)Nc3ccccc3Sc3ccccc3)c2)cc1", "note": "[Compound 25-KR-21, 4-Methoxyphenyl 3-((2-oxo-2-((2-(phenylthio)phenyl)amino)ethyl)amino) benzoate]", "Inhibition rate (%)": "50.91 ± 1.93"}, {"smiles": "COC(=O)c1cccc(N(CC(=O)Nc2ccccc2Sc2ccccc2)S(=O)(=O)c2ccc(C)cc2)c1", "note": "[Compound 25-KR-26, Methyl 3-((4-methyl-N-(2-oxo-2-((2-(phenylthio)phenyl)amino)ethyl)phenyl)sulfonamido)benzoate]", "Inhibition rate (%)": "49.09 ± 2.32"}, {"smiles": "O=C(CNc1cccc(C(=O)Oc2ccc(Cl)cc2)c1)Nc1ccccc1Sc1ccccc1", "note": "[Compound 25-KR-25, 4-Chlorophenyl 3-((2-oxo-2-((2-(phenylthio)phenyl)amino)ethyl)amino) benzoate]", "Inhibition rate (%)": "43.18 ± 2.32"}]}, {"tested_on": "RANKL-induced BMM", "assay": "In vitro osteoclast formation assay (TRAP staining / TRAP activity)", "type": "cell-based, C57/BL6 mice", "design": "key to Inhibition rate (%): \"Inactive\" indicates that the % inhibition is less than 30%", "settings": "2 µM; osteoclast differentiation in RANKL-induced BMM; mean ± SD from at least three experiments", "description": "as §1, §2", "values": [{"smiles": "CC(C)(C)c1ccc(OC(=O)c2cccc(N(CC(=O)Nc3ccccc3Sc3ccccc3)S(C)(=O)=O)c2)cc1", "note": "[Compound 25-KR-04, 4-(tert-butyl)phenyl 3-(N-(2-oxo-2-((2-(phenylthio)phenyl)amino)ethyl)methylsulfonamido)benzoate]", "Inhibition rate (%)": "Inactive ^c"}, {"smiles": "O=C(CNc1cccc(O)c1)Nc1ccccc1Sc1ccccc1", "note": "[Compound 25-KR-19, 2-((3-Hydroxyphenyl)amino)-N-(2-(phenylthio)phenyl)acetamide]", "Inhibition rate (%)": "Inactive ^c"}, {"smiles": "CS(=O)(=O)N(CC(=O)Nc1ccccc1Sc1ccccc1)c1cccc(O)c1", "note": "[Compound 25-KR-17, 2-(N-(3-hydroxyphenyl)methylsulfonamido)-N-(2-(phenylthio)phenyl)acetamide]", "Inhibition rate (%)": "Inactive ^c"}, {"smiles": "CS(=O)(=O)N(CC(=O)Nc1ccccc1Sc1ccccc1)c1cccc(C(=O)Oc2cccc3ccccc23)c1", "note": "[Compound 25-KR-14, Naphthalen-1-yl 3-(N-(2-oxo-2-((2-(phenylthio)phenyl)amino)ethyl)methylsulfonamido)benzoate]", "Inhibition rate (%)": "Inactive ^c"}, {"smiles": "Cc1ccccc1OC(=O)c1cccc(N(CC(=O)Nc2ccccc2Sc2ccccc2)S(C)(=O)=O)c1", "note": "[Compound 25-KR-05, o -Tolyl 3-(N -(2-oxo-2-((2-(phenylthio)phenyl)amino)ethyl)methylsulfonamido) benzoate]", "Inhibition rate (%)": "Inactive ^c"}, {"smiles": "Cc1cccc(OC(=O)c2cccc(N(CC(=O)Nc3ccccc3Sc3ccccc3)S(C)(=O)=O)c2)c1", "note": "[Compound 25-KR-06, m -Tolyl 3-(N-(2-oxo-2-((2-(phenylthio)phenyl)amino)ethyl)methylsulfonamido)benzoate]", "Inhibition rate (%)": "Inactive ^c"}, {"smiles": "Cc1ccc(OC(=O)c2cccc(N(CC(=O)Nc3ccccc3Sc3ccccc3)S(C)(=O)=O)c2)cc1", "note": "[Compound 25-KR-07, p -Tolyl 3-(N-(2-oxo-2-((2-(phenylthio)phenyl)amino)ethyl)methylsulfonamido) benzoate]", "Inhibition rate (%)": "Inactive ^c"}, {"smiles": "CS(=O)(=O)N(CC(=O)Nc1ccccc1Sc1ccccc1)c1cccc(C(=O)Oc2ccc3ccccc3c2)c1", "note": "[Compound 25-KR-15, Naphthalen-2-yl 3-(N-(2-oxo-2-((2-(phenylthio)phenyl)amino)ethyl)methylsulfonamido)benzoate]", "Inhibition rate (%)": "Inactive ^c"}, {"smiles": "CS(=O)(=O)N(CC(=O)Nc1ccccc1Sc1ccccc1)c1cccc(C(=O)Oc2ccc([N+](=O)[O-])cc2)c1", "note": "[Compound 25-KR-13, 4-Nitrophenyl 3-(N-(2-oxo-2-((2-(phenylthio)phenyl)amino)ethyl)methylsulfonamido)benzoate]", "Inhibition rate (%)": "Inactive ^c"}, {"smiles": "CS(=O)(=O)N(CC(=O)Nc1ccccc1Sc1ccccc1)c1cccc(C(=O)O)c1", "note": "[Compound 25-KR-02, 3-(N-(2-oxo-2-((2-(phenylthio)phenyl)amino)ethyl)methylsulfonamido)benzoic acid]", "Inhibition rate (%)": "Inactive ^c"}, {"smiles": "CC(C)(C)[Si](C)(C)Oc1cccc(N(CC(=O)Nc2ccccc2Sc2ccccc2)S(C)(=O)=O)c1", "note": "[Compound 25-KR-16, 2-(N-(3-((tert-butyldimethylsilyl)oxy)phenyl)methylsulfonamido)-N-(2-(phenylthio)phenyl)acetamide]", "Inhibition rate (%)": "Inactive ^c"}, {"smiles": "CS(=O)(=O)N(CC(=O)Nc1ccccc1Sc1ccccc1)c1cccc(C(=O)Oc2ccccc2C#N)c1", "note": "[Compound 25-KR-11, 2-Cyanophenyl 3-(N-(2-oxo-2-((2-(phenylthio)phenyl)amino)ethyl)methylsulfonamido)benzoate]", "Inhibition rate (%)": "Inactive ^c"}, {"smiles": "COC(=O)c1cccc(N(CC(=O)Nc2ccccc2Sc2ccccc2)S(C)(=O)=O)c1", "note": "[Compound 25-KR-01, Methyl 3-(N-(2-oxo-2-((2-(phenylthio)phenyl)amino)ethyl)methylsulfonamido) benzoate]", "Inhibition rate (%)": "Inactive ^c"}, {"smiles": "CS(=O)(=O)N(CC(=O)Nc1ccccc1Sc1ccccc1)c1cccc(C(=O)Oc2cccc([N+](=O)[O-])c2)c1", "note": "[Compound 25-KR-12, 3-Nitrophenyl 3-(N-(2-oxo-2-((2-(phenylthio)phenyl)amino)ethyl)methylsulfonamido)benzoate]", "Inhibition rate (%)": "Inactive ^c"}, {"smiles": "CC(C)(C)[Si](C)(C)Oc1cccc(NCC(=O)Nc2ccccc2Sc2ccccc2)c1", "note": "[Compound 25-KR-18, 2-((3-((tert-butyldimethylsilyl)oxy)phenyl)amino)-N-(2-(phenylthio)phenyl)acetamide]", "Inhibition rate (%)": "Inactive ^c"}]}, {"tested_on": "RANKL-induced BMM", "assay": "In vitro osteoclast formation assay (TRAP staining / TRAP activity)", "type": "cell-based, C57/BL6 mice", "design": "key to Inhibition rate (%): \"Inactive\" indicates that the % inhibition is less than 30%", "settings": "Mus musculus; 1 µM; osteoclast differentiation in RANKL-induced BMM; mean ± SD from at least three experiments; read-out: Inhibition rate (%)", "description": "as §1, §2", "units": {"inhibition at 1 µM": "%"}, "values": [{"smiles": "Cc1ccc(OC(=O)c2cccc(NCC(=O)Nc3ccccc3Sc3ccccc3)c2)cc1", "note": "[Compound 25-KR-24, p-Tolyl 3-((2-oxo-2-((2-(phenylthio)phenyl)amino)ethyl)amino)benzoate]", "inhibition at 1 µM": "36.8 ± 7.82"}, {"smiles": "O=C(CNc1cccc(C(=O)O)c1)Nc1ccccc1Sc1ccccc1", "note": "[Compound 25-KR-27, 3-((2-oxo-2-((2-(phenylthio)phenyl)amino)ethyl)amino)benzoic acid]", "inhibition at 1 µM": "31.8 ± 1.93"}, {"smiles": "Cc1ccccc1OC(=O)c1cccc(NCC(=O)Nc2ccccc2Sc2ccccc2)c1", "note": "[Compound 25-KR-22, o-Tolyl 3-((2-oxo-2-((2-(phenylthio)phenyl)amino)ethyl)amino)benzoate]", "inhibition at 1 µM": "47.7 ± 11.4"}, {"smiles": "Cc1cccc(OC(=O)c2cccc(NCC(=O)Nc3ccccc3Sc3ccccc3)c2)c1", "note": "[Compound 25-KR-23, m-Tolyl 3-((2-oxo-2-((2-(phenylthio)phenyl)amino)ethyl)amino)benzoate]", "inhibition at 1 µM": "46.8 ± 13.4"}]}, {"tested_on": "RANKL-induced BMM", "assay": "In vitro osteoclast formation assay (TRAP staining / TRAP activity)", "type": "cell-based, C57/BL6 mice", "design": "key to Inhibition rate (%): \"Inactive\" indicates that the % inhibition is less than 30%", "settings": "Mus musculus; 2 µM; osteoclast differentiation in RANKL-induced BMM; mean ± SD from at least three experiments; read-out: Inhibition rate (%)", "description": "as §1, §2", "units": {"inhibition at 2 µM": "%"}, "values": [{"smiles": "CS(=O)(=O)N(CC(=O)Nc1ccccc1Sc1ccccc1)c1cccc(C(=O)Oc2ccc(Cl)cc2)c1", "note": "[Compound 25-KR-10, 4-Chlorophenyl 3-(N-(2-oxo-2-((2-(phenylthio)phenyl)amino)ethyl)methylsulfonamido)benzoate]", "inhibition at 2 µM": "47.4 ± 9.79"}, {"smiles": "COc1ccccc1OC(=O)c1cccc(N(CC(=O)Nc2ccccc2Sc2ccccc2)S(C)(=O)=O)c1", "note": "[Compound 25-KR-08, 2-Methoxyphenyl 3-(N-(2-oxo-2-((2-(phenylthio)phenyl)amino)ethyl)methylsulfonamido)benzoate]", "inhibition at 2 µM": "37.6 ± 8.21"}, {"smiles": "COc1ccc(OC(=O)c2cccc(N(CC(=O)Nc3ccccc3Sc3ccccc3)S(C)(=O)=O)c2)cc1", "note": "[Compound 25-KR-09, 4-Methoxyphenyl 3-(N-(2-oxo-2-((2-(phenylthio)phenyl)amino)ethyl)methylsulfonamido)benzoate]", "inhibition at 2 µM": "45.8 ± 3.65"}, {"smiles": "NCCCC(O)(P(=O)(O)O)P(=O)(O)O", "note": "[Alendronate, reference compound]", "inhibition at 2 µM": "41.2 ± 8.68"}]}, {"tested_on": "RANKL-induced BMM", "assay": "In vitro osteoclast formation assay (TRAP staining / TRAP activity)", "type": "cell-based, C57/BL6 mice", "design": "key to Inhibition rate (%): \"Inactive\" indicates that the % inhibition is less than 30%", "settings": "SAR summary in words of Table 2 (2 µM)", "description": "as §1, §2", "values": [{"smiles": "CS(=O)(=O)N(CC(=O)Nc1ccccc1Sc1ccccc1)c1cccc(C(=O)Oc2ccc(Cl)cc2)c1", "note": "[Compound 25-KR-10, 4-Chlorophenyl 3-(N-(2-oxo-2-((2-(phenylthio)phenyl)amino)ethyl)methylsulfonamido)benzoate]", "inhibitory effects on osteoclast formation": "moderate inhibitory effects"}, {"smiles": "COc1ccccc1OC(=O)c1cccc(N(CC(=O)Nc2ccccc2Sc2ccccc2)S(C)(=O)=O)c1", "note": "[Compound 25-KR-08, 2-Methoxyphenyl 3-(N-(2-oxo-2-((2-(phenylthio)phenyl)amino)ethyl)methylsulfonamido)benzoate]", "inhibitory effects on osteoclast formation": "moderate inhibitory effects"}, {"smiles": "COc1ccc(OC(=O)c2cccc(N(CC(=O)Nc3ccccc3Sc3ccccc3)S(C)(=O)=O)c2)cc1", "note": "[Compound 25-KR-09, 4-Methoxyphenyl 3-(N-(2-oxo-2-((2-(phenylthio)phenyl)amino)ethyl)methylsulfonamido)benzoate]", "inhibitory effects on osteoclast formation": "moderate inhibitory effects"}]}, {"tested_on": "OVX-induced osteoporosis mouse model", "assay": "OVX-induced osteoporosis mouse model (micro-CT, body weight)", "type": "in vivo, C57BL/6 female mice", "settings": "20 mg/kg intraperitoneally once daily for 4 weeks after surgery; compared with the OVX group", "description": "Specific pathogen-free facilities were used to grow mice. To investigate the effects of 25-KR-03 in vivo, the inventors established an OVX-induced osteoporosis mouse model as previously described. Seven-week-old C57BL/6 female mice were divided into four groups (Sham, OVX, 25-KR-03, and PMSA-3-Ac). Among them, the OVX, 25-KR-03, and PMSA-3-Ac groups underwent OVX surgery.\nAfter a 1-week recovery period, mice were intraperitoneally injected with 25-KR-03 or PMSA-3-Ac (20 mg/kg, dissolved in a mixture of 10 % Tween 80 and 10% DMSO) once daily for 4 weeks. The sham and control (OVX) groups received equal volumes of the mixture of 10 % Tween 80 and 10% DMSO once daily for 4 weeks. Body weights of the mice were measured weekly. When the mice were euthanized, the femurs were isolated and fixed in 4.0% paraformaldehyde for micro-computed tomography (micro-CT) analysis as previously performed.\nMicro-CT scanning was performed as in previous studies. The Quantum GX Micro-CT imaging system (PerkinElmer, Hopkinton, MA, USA) was used at the Korea Basic Science Institute (Gwangju, Korea).", "values": [{"smiles": "CC(=O)c1cccc(N(CC(=O)Nc2ccccc2Sc2ccccc2)S(C)(=O)=O)c1", "note": "[PMSA-3-Ac, reference compound]", "prevention of bone loss (Tb.Th and BMD values, micro-CT of femur)": "no significant effect"}]}]}
